Reference: ChEMBL document CHEMBL4680214, “Fluorinated derivatives of 2-phenyl-3-hydroxy-4(1H)-quinolinone as tubulin polymerization inhibitors” (Eur J Med Chem, 2020)

What was measured:
[1] = test system: CCRF-CEM; experiment: Cytotoxicity against human CCRF-CEM cells incubated for 72 hrs by MTS assay; assay type: functional, cell-based
[2] = test system: CCRF-CEM; experiment: Cytotoxicity against human daunorubicine-resistant CCRF-CEM cells incubated for 72 hrs by MTS assay; assay type: functional, cell-based
[3] = test system: K562; experiment: Cytotoxicity against human K562 cells incubated for 72 hrs by MTS assay; assay type: functional, cell-based; settings: K562, 72 h
[4] = test system: K562; experiment: Cytotoxicity against human paclitaxel-resistant K562 cells incubated for 72 hrs by MTS assay; assay type: functional, cell-based; settings: K562, 72 h
[5] = test system: HCT-116; experiment: Cytotoxicity against human HCT-116 cells incubated for 72 hrs by MTS assay; assay type: functional, cell-based; settings: HCT-116, 72 h
[6] = test system: HCT-116; experiment: Cytotoxicity against p53-deficient human HCT-116 cells incubated for 72 hrs by MTS assay; assay type: functional, cell-based; settings: HCT-116, 72 h
[7] = test system: A549; experiment: Cytotoxicity against human A549 cells incubated for 72 hrs by MTS assay; assay type: functional, cell-based; settings: A549, 72 h
[8] = test system: BJ; experiment: Cytotoxicity against human BJ cells incubated for 72 hrs by MTS assay; assay type: cell-based
[9] = test system: CCRF-CEM; experiment: Cell cycle arrest in human CCRF-CEM cells assessed as accumulation at sub-G1 phase at IC50 measured after 24 hrs by propidium iodide staining based flow cytometry (reference value: 2%); assay type: functional
[10] = test system: CCRF-CEM; experiment: Cell cycle arrest in human CCRF-CEM cells assessed as accumulation at sub-G1 phase at 5 times IC50 measured after 24 hrs by propidium iodide staining based flow cytometry (reference value: 2%); assay type: functional
[11] = test system: CCRF-CEM; experiment: Cell cycle arrest in human CCRF-CEM cells assessed as accumulation at G0/G1 phase at IC50 measured after 24 hrs by propidium iodide staining based flow cytometry (reference value: 35.2%); assay type: functional
[12] = test system: CCRF-CEM; experiment: Cell cycle arrest in human CCRF-CEM cells assessed as accumulation at G0/G1 phase at 5 times IC50 measured after 24 hrs by propidium iodide staining based flow cytometry (reference value: 35.2%); assay type: functional
[13] = test system: CCRF-CEM; experiment: Cell cycle arrest in human CCRF-CEM cells assessed as accumulation at S phase at IC50 measured after 24 hrs by propidium iodide staining based flow cytometry (reference value: 42.2%); assay type: functional
[14] = test system: CCRF-CEM; experiment: Cell cycle arrest in human CCRF-CEM cells assessed as accumulation at S phase at 5 times IC50 measured after 24 hrs by propidium iodide staining based flow cytometry (reference value: 42.2%); assay type: functional
[15] = test system: CCRF-CEM; experiment: Cell cycle arrest in human CCRF-CEM cells assessed as accumulation at G2/M phase at IC50 measured after 24 hrs by propidium iodide staining based flow cytometry (reference value: 22.6%); assay type: functional
[16] = test system: CCRF-CEM; experiment: Cell cycle arrest in human CCRF-CEM cells assessed as accumulation at G2/M phase at 5 times IC50 measured after 24 hrs by propidium iodide staining based flow cytometry (reference value: 22.6%); assay type: functional
[17] = test system: CCRF-CEM; experiment: Cell cycle arrest in human CCRF-CEM cells assessed as phosphorylation of histone H3 at Ser10 at IC50 measured after 24 hrs by propidium iodide staining based flow cytometry (reference value: 2.0%); assay type: functional
[18] = test system: CCRF-CEM; experiment: Cell cycle arrest in human CCRF-CEM cells assessed as phosphorylation of histone H3 at Ser10 at 5 times IC50 measured after 24 hrs by propidium iodide staining based flow cytometry (reference value: 2.0%); assay type: functional
[19] = test system: CCRF-CEM; experiment: Cell cycle arrest in human CCRF-CEM cells assessed as BrdU incorporation at IC50 measured after 24 hrs by propidium iodide/immunostaining based flow cytometry (reference value: 60.0%); assay type: functional
[20] = test system: CCRF-CEM; experiment: Cell cycle arrest in human CCRF-CEM cells assessed as BrdU incorporation at 5 times IC50 measured after 24 hrs by propidium iodide/immunostaining based flow cytometry (reference value: 60.0%); assay type: functional
[21] = test system: CCRF-CEM; experiment: Cell cycle arrest in human CCRF-CEM cells assessed as BrU incorporation at IC50 measured after 24 hrs by propidium iodide/immunostaining based flow cytometry (reference value: 52.2%); assay type: functional
[22] = test system: CCRF-CEM; experiment: Cell cycle arrest in human CCRF-CEM cells assessed as BrU incorporation at 5 times IC50 measured after 24 hrs by propidium iodide/immunostaining based flow cytometry (reference value: 52.2%); assay type: functional
[23] = species on record: Sus scrofa; experiment: Inhibition of porcine brain tubulin polymerization assessed as Vmax of polymerization at 10 umol/L measured at 60 secs interval for 30 mins by turbidometric method; settings: dose 10.0 µmol/L

Structure (SMILES)	IC50 [1] [µM]	IC50 [2] [µM]	IC50 [3] [µM]	IC50 [4] [µM]	IC50 [5] [µM]	IC50 [6] [µM]	IC50 [7] [µM]	IC50 [8] [µM]	further results
O=c1c(O)c(-c2ccc(F)cc2)[nH]c2ccccc12	2.4	9.4	40.4	8.6	34	36.5	18.1	> 50	Activity [9]: 4.4%; Activity [10]: 8.4%; Activity [11]: 39.6%; Activity [12]: 45.9%; Activity [13]: 24.2%; Activity [14]: 13.5%; Activity [15]: 36.2%; Activity [16]: 40.7%; Activity [17]: 1.5%; Activity [18]: 1.6%; Activity [19]: 35.5%; Activity [20]: 25.2%; Activity [21]: 31.3%; Activity [22]: 32.1%
O=c1c(O)c(-c2ccccc2)[nH]c2cc(F)c(F)cc12	12.6	12.8	18.9	17.4	15.1	22.6	18.2	> 50	–
COC(=O)Nc1nc2cc(C(=O)c3cccs3)ccc2[nH]1	–	–	–	–	–	–	–	–	Vmax (milli optical density/minute) [23]: 7.6
O=c1c(O)c(-c2ccccc2)[nH]c2cc(F)ccc12	17.8	17.5	21.7	21.4	> 50	43.9	19.5	> 50	–
O=c1c(O)c(-c2ccccc2)[nH]c2c(F)c(F)c(F)c(F)c12	19.5	> 50	> 50	16.8	> 50	> 50	> 50	> 50	–
CC(=O)O[C@H]1C(=O)[C@@]2(C)[C@H]([C@H](OC(=O)c3ccccc3)[C@]3(O)C[C@H](OC(=O)[C@H](O)[C@@H](NC(=O)c4ccccc4)c4ccccc4)C(C)=C1C3(C)C)[C@]1(OC(C)=O)CO[C@@H]1C[C@@H]2O	–	–	–	–	–	–	–	–	Vmax (milli optical density/minute) [23]: 63.3
O=c1c(O)c(-c2ccccc2)[nH]c2cc(F)cc(F)c12	4.6	18	21.6	19.8	22.5	> 50	19.6	> 50	Activity [9]: 0.8%; Activity [10]: 1.4%; Activity [11]: 33%; Activity [12]: 26.6%; Activity [13]: 48.4%; Activity [14]: 51.6%; Activity [15]: 18.6%; Activity [16]: 21.8%; Activity [17]: 2.1%; Activity [18]: 0.9%; Activity [19]: 65.7%; Activity [20]: 79%; Activity [21]: 57.2%; Activity [22]: 53.7%
O=c1c(O)c(-c2ccccc2)[nH]c2ccc(F)cc12	17.8	15.3	18.8	20.3	> 50	17.4	18.8	> 50	–
O=c1c(O)c(-c2cccc(F)c2)[nH]c2ccccc12	7.3	50	12.9	7.5	27.1	50	13.1	> 50	Activity [9]: 5.4%; Activity [10]: 15.9%; Activity [11]: 34.9%; Activity [12]: 52.6%; Activity [13]: 32.6%; Activity [14]: 19.9%; Activity [15]: 32.6%; Activity [16]: 27.5%; Activity [17]: 1%; Activity [18]: 0.2%; Activity [19]: 26.7%; Activity [20]: 22.4%; Activity [21]: 33.7%; Activity [22]: 3.8%
O=c1c(O)c(-c2ccccc2F)[nH]c2ccccc12	17.4	50	33.7	22.2	35.1	34.2	31.7	> 50	–
O=c1c(O)c(-c2ccccc2)[nH]c2cc(F)c(N3CCN(CCOCCO)CC3)cc12	19.8	> 50	47.7	> 50	> 50	29.4	> 50	> 50	–
O=c1c(O)c(-c2ccccc2)[nH]c2cc(F)c(N3CCOCC3)cc12	> 50	11.7	19.3	12.8	5.2	> 50	13.6	> 50	–
